Data reported in ChEMBL document CHEMBL1201862, “PubChem BioAssay data set” (2004).
The source made the active and inactive calls. Rule as the data show it: actives have a measured IC50 and inactives only a lower limit.

Target: Envelope glycoprotein gp160 (Human immunodeficiency virus 1, UniProt Q6QLK5)
Assay: inhibitors of HIV fusion peptide binding, primary screen, biochemical, uHTS, fluorescence dequenching (AID 1986)

Sequence of Envelope glycoprotein gp160 (Q6QLK5 whole entry, the tested form may be a part): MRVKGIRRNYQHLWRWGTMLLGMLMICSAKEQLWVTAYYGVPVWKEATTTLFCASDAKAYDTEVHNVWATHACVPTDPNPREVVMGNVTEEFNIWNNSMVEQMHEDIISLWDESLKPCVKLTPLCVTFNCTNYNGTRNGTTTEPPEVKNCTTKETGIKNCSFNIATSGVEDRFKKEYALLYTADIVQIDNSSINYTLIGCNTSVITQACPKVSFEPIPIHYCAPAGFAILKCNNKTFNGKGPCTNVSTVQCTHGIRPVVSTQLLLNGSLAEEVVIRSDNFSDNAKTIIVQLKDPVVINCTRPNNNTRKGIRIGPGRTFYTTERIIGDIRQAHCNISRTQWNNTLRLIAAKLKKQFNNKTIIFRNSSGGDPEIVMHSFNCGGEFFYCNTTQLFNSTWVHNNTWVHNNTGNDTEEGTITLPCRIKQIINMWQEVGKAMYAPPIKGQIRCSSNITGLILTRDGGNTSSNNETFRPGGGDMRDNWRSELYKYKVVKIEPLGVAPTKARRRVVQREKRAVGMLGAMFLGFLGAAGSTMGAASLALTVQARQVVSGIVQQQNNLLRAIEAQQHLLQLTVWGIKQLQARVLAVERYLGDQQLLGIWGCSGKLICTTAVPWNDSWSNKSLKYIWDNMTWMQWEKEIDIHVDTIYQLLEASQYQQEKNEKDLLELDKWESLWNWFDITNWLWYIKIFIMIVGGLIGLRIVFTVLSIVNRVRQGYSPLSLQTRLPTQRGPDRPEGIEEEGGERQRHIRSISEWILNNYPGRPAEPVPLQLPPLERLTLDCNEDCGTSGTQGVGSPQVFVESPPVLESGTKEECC

**Q.** For COc1cc(/C=C2\SC(=O)N(CC(=O)Nc3cccc(C)c3)C2=O)cc([N+](=O)[O-])c1O, which IC50 is on record?
**A.** 23.1 µM (active)
